Assay [1] relates to HUVEC cells. Briefly: Lipid peroxidation: malondialdehyde (MDA) in HUVEC. Type of assay: cell-based, human. The settings on record: 30 mM glucose, with or without 5 mM ERT. As to the method: The prepared cells were seeded in 6 well plates and T75 flasks and grown until 80% confluence. The medium was removed, and the cells were washed with Hank's Balanced Salt Solution (HBSS). […] The vehicle solution is the solvent for the test compounds, in this case being the medium without supplements. […] The cells described above were also incubated for 24 hours with a 7 mM, normal glucose (NG) solution or in some instances, with a 15 mM, intermediary glucose (IG) solution. See, for example, FIG. 6. Subsequently, the cells were incubated for 24 hours. The same protocol was used for incubation with Nε-(carboxymethyl)lysine (CML, final concentration 1 micromolar) and 1,3-morpholino sidnonimine (SIN-1, final concentration 0.5 mM).

The test system of assay [2] is erythrocytes. Briefly: Radical-induced hemolysis of erythrocytes. Type of assay: cell-based. The settings on record: erythrocytes exposed to hyperglycemic conditions, 24 h incubation.
In assay [3] the test system is Superoxide dismutases (total SOD, SOD1, SOD2). Briefly: SOD activity, expression and protein levels in HUVEC. It is filed as cell-based, human. The text has this: One of the reactive oxygen species of which the production is likely to be increased during hyperglycemia is the superoxide radical (O2•—), potentially due to an over-activation of the mitochondrial respiratory chain. Superoxide dismutases (SODs) constitute a family of enzymes that effectively reduces the amount of superoxide radicals by turning them into hydrogen peroxide and oxygen. SODs occur in the cytoplasma (copper, zinc SOD or SOD1) and in the mitochondrion (manganese SOD or SOD2). A third form (SOD3 or EC-SOD) is found extracellularly. […] Accordingly, the expression protein and activity levels of SOD2 (which is the inducible SOD) SOD1 and total SOD activity were studied.
The total SOD activity (U/mg protein), SOD1 activity, SOD2 activity, SOD2 expression (by RT-PCR), and SOD2 protein (by Western blot) were not affected by HGERT vs HG […].

In assay [4] the test system is HUVEC cells. The assay is described as follows: Eicosanoids in HUVEC pellets and supernatants. Type of assay: cell-based, human. As to the method: Another parameter evaluated in the targeted assays included the study of 23 eicosanoids in a comparison of HG versus HGERT conditions.
In studying the supernatants, 14,15-dihydroxy-5Z,8Z,11Z-eicosatrienoate (14,15-DiHETrE), produced from arachidonic acid via Cyp 2C and 2J to form epoxyeicosatrienoic acids (EETs), then converted to DiHETrE via sEH, decreased from 0.0085 to 0.0040 nM (p<0.05). This decrease in 14,15-DiHETrE is consistent with high glucose suppression of sEH, and should result in increased EETs, which would produce vasodilation. EETs were not, however, observed to be increased.

Assay [5] deals with Geotrichum candidum cells (GCC). Briefly: Function and activity of freeze-dried Geotrichum candidum culture. Type of assay: cell-based. The text has this: A starter culture with Geotrichum candidum cells (GCC) was produced by ID growing GCC in a medium containing 10% glucose and other nutrients. […] The function and activity of GCC was reduced during such preservation process. […] Function and activity was expressed by measuring how many doses GCC culture with a standardized amount of activity and function can be obtained per liter fermentation broth.

The test system of assay [6] is Beta cells (Cell line: HIT-T15). Briefly: HIT-T15 beta cell viability (trypan blue, Countess). The settings on record: 6, 15 or 30 mM glucose 24 hours, with or without 5 mM ERT. It is filed as cell-based. As for the experimental part: Beta cells (Cell line: HIT-T15) were obtained from supplier ATCC. The cells were seeded in 24 well plate (300,000 cells/well). After overnight attaching, the medium was removed and the cells were washed with HBSS. […] After 1 hour incubation, glucose solution was added to a final concentration of 6, 15, or 30 mM in the wells. Subsequently, the cells were incubated for 24 hours. After incubation, all cell material including medium and HBSS was collected and centrifuged (5 minutes, 500×g). The supernatant was removed and the cells were resuspended in 500 μl HBSS. The cell suspensions were diluted 1:1 in 0.4% trypan blue dye and loaded in a Countess Chamber. The cells were counted using the Countess cell counter, which calculated the viability (function and activity) of the cells.

In the next assay the test system is Human 1.1E7 beta cells. The assay is described as follows: 1.1E7 beta cell viability (trypan blue, Countess). The following applies: 10, 30, 45 mM glucose, with or without 5 mM ERT. It is filed as cell-based. As to the method: Cell culture: Human 1.1E7 beta cells were cultured in RPMI 1640 medium containing 10% fetal calf serum, 2 mM L-Glutamine and 1% penicillin/streptomycin. Cells were maintained at 37° C. in a 5% CO2 atmosphere.
Viability: Cells were seeded in a 24 well plate. After overnight attaching, the medium was removed and cells were washed with HBSS. […] After 1 hour incubation a vehicle or glucose solution was added to a final concentration of 10, 30 or 45 mM in the wells. Subsequently, cells were incubated for 24 hours, 48 hours, 6 days, and 7 days. After incubation, all cell material including medium and HBSS was collected and centrifuged (5 minutes, 500×g). Supernatant was removed and cells were resuspended in 100 μl HBSS. Cell suspensions were diluted 1:1 in 0.4% trypan blue dye and loaded in a Countess Chamber. Cells were counted using the Invitrogen Countess® automated cell counter (Life Technologies Europe BV, Bleiswijk, the Netherlands).

The subject of assay [7] is erythrocytes. The following applies: in vitro model of radical-induced hemolysis; cited from earlier work.
The conditions of assay [8]: in vitro; cited from earlier work.
Assay [9] deals with HUVEC cells. The settings on record: ERT by itself, non-diabetic conditions; cited from earlier work.

The source of these data is patent US20150104868A1, “Methods of Maintaining and Improving Biological Cell Function and Activity” (GARGILL INCORPORATED, priority 2012, published 2015).

As to `OC[C@@H](O)[C@@H](O)CO` [ERT, meso-1,2,3,4-tetrahydroxybutane], the “malondialdehyde (MDA), end product of lipid peroxidation” value with HUVEC cells [1] is “Neither the exposure of the HUVEC cells to 5 mM ERT and 30 mM glucose (HGERT) nor to HG aloneaffected”. Further, the radical-induced hemolysis result with erythrocytes [2] is “able to inhibit radical-induced hemolysis”. In assay [3] (HGERT vs HG), the “total SOD activity, SOD1 activity, SOD2 activity, SOD2 expression (RT-PCR), SOD2 protein (Western blot)” value was “not affected”. Besides, the “transcription and protein levels of SOD2” value in [3] (HUVEC) is “did not affect transcription or the protein levels of SOD2”. For the same compound, in [3] (hyperglycemic conditions, effect not significant), the “total superoxide dismutase activity” value is “appeared to increase the total superoxide dismutase activity”. Moreover, the “14,15-DiHETrE in supernatants” value in the assay on HUVEC cells [4] (HG vs HGERT) amounted to 4 pM. Further, the TXB2 with HUVEC cells [4] (HG vs HGERT) is recorded as 1.20. Besides, the 12-HETE in pellets result in the assay with HUVEC cells [4] (HGERT vs HG) is “decreasing 12-HETE levels”. Further, the “Change in GCC cell activity and function (blank set at 100)” value in [5] (2% ERT) was 120; in assay [5] (3% ERT) it was 126; in assay [5] (5% ERT), 107. Also, the “improvement of GCC activity and function” value came out at 20% in assay [5] (2% ERT) and 26% in assay [5] (3% ERT). Also, the Doses/ltr fermentation broth in [5] (2% ERT added before freeze drying) amounted to 621 Doses/ltr; in [5] (3% ERT added before freeze drying), 652 Doses/ltr; in assay [5] (5% ERT added before freeze drying) it was 555 Doses/ltr. The “increase of GCC activity and function” value in [5] (5% ERT) stood at 8%. Besides, the “viability (function and activity) of HIT-T15 cells” value in assay [6] is “attenuated this decrease significantly”. For the same compound, the “viability of 1.1E7 cells” value was “entirely prevented this decrease in beta cell viability” with Human 1.1E7 beta cells (6 and 7 days); “did not have any impact on this maintained viability” with Human 1.1E7 beta cells (24 and 48 hours). In addition, the “onset of oxidative damage, ABTS-induced hemolysis” value with erythrocytes [7] was “able to delay the onset of oxidative damage”. Moreover, the hydroxyl radical scavenging entry in assay [8] is listed as “effective in scavenging hydroxyl radicals”. In addition, the “superoxide or peroxynitrite scavenging activity” value in assay [8] is on record as “does not possess any superoxide or peroxynitrite scavenging activity”. Also, the “viability, oxidative damage, SOD activity, nitric oxide production, adhesion molecule production, transcriptome” value in the assay on HUVEC cells [9] is on record as “did not show changes”.
